In patent US11510931B2, “Compositions and methods for treating ophthalmic conditions” (MEDICON PHARMACEUTICALS, INC., priority 2016, dated 2022):

Assays:
[1] = tested on: concanavalin A-induced dry eye in rabbits; experiment: Concanavalin A (Con A)-induced dry eye disease (DED) model in rabbits: TBUT, Schirmer test, tear osmolarity, tear lactoferrin; type: in vivo, rabbit; settings: after 1 week of treatment with NSAID; FIG. 5
Method: To assess the efficacy of PS on DED an improved concanavalin A model was used. In the concanavalin A model, dry eye is induced by injecting the lacrimal glands of a mammal with concanavalin A, a selective T cell mitogen that induces a lymphocytic infiltrate in these glands. The concanavalin A model is generally described in (Barabino S. Animal models of dry eye. Arch Soc Esp Oftalmol. 2005; 80(12):693-4). Concanavalin A was injected to the lacrimal glands under ultrasound guidance, thus eliminating injections to the vicinity of the gland (as opposed to the gland itself). The head and the tail of the major lacrimal gland of the rabbit were injected separately. The dose of concanavalin A was optimized for DED signs.
In the testing described below, four markers of DED are monitored: the tear break up time (TBUT), the Schirmer test, tear osmolarity, and tear lactoferrin levels. All assays were performed at the same clock time (±1 hr) to avoid assay variability on account of circadian variations.
In an efficacy experiment using the concanavalin A model, one group of rabbits was treated with compound 5, also known as phosphosulindac and abbreviated as PS, 1.5% eye drops and one group with vehicle. […] It is thus clear that PS applied topically suppresses DED.
Con A was injected under ultrasound guidance into all the lacrimal glands and the success of the injection was verified by a post-injection ultrasound image (see FIG. 1 and FIG. 2). […] This variation explains why the blind injections recommended in the original method are often unsuccessful. This was confirmed by mixing the Con A solution with methylene blue and tracking its course after injection. In about ⅓ of the cases, Con A ended up outside the gland.
Four parameters of efficacy were evaluated instead of the usual one or two. They include (a) the tear break up time (TBUT), determined using 0.2% fluorescein over the eye and recording the time taken to develop black dots, lines or obvious disruption of the fluorescein film; (b) tear osmolarity, measured using TearLab Osmolarity Test and following the manufacturer's instructions (TearLab Corp., San Diego, Calif.); (3) Schirmer tear test (STT), determined using Schirmer strips (EagleVision, Denville, N.J.) inserted between the cornea and the palpebral conjunctiva at the mid-point of the lower lid and measuring the length of moistened strip at 5 min; and (4) tear lactoferrin levels measured by ELISA kit (MyBiosource, San Diego, Calif.) following the instructions of the manufacturer. All four have been used in clinical practice and correlate with the clinical activity of the disease. The STT is the least reliable and, as result, it is clinically used less than half as frequently as TBUT.
The injections of Con A to the lacrimal glands were repeated weekly as needed. When longer than a 1-week periods of study are needed, repeat injections prolong dry eye for at least 3 weeks, making the originally acute model chronic.
PS Suppresses Con A—Induced Dry Eye in Rabbits. The effect of PS on dry eye was determined in New Zealand White (NZW) rabbits, 2-3 kg (Charles River Labs, Waltham, Mass.). These rabbits were housed singly in rooms with strict temperature (70±5° F.) and humidity (45±5%) control and acclimated for at least 2 weeks prior to induction of dry eye by injection of Con A as above. NZW rabbits with Con A-induced dry eye (three sets of injections) were treated with PS formulated as nanoparticles and administered topically as eye drops 3×/day for 21 days, starting on the day of Con A injection. […] Similar results were obtained on days 5 and 14 (data not shown).
Using this model, we compared the effect of PS to that of cyclosporine and lifitegrast. Rabbits were treated for 6 days with PS as above or cyclosporine 0.05% or lifitegrast 5% eye drops 3×/day. In addition to determining TUBT, osmolarity and STT, we measured the levels of IL-8 and IL-1β in the ILGs of the rabbits harvested at euthanasia. […]

PGE2 = PGE2 levels in tears and cornea of rabbits by ELISA; type: in vivo, rabbit; settings: for PGE2 levels in the cornea: administered once topically, 1 h later, FIG. 9B; for PGE2 levels in the cornea, % of the vehicle value: day 6, PS 2.3%, diclofenac 0.1%
Method: The effects of PS, ketorolac and dicofenac (the latter two ophthalmic NSAIDs known to induce corneal melt) on the tear levels of PGE2 in rabbits with concanavalin A-induced dry eye were compared. Three eye drops of PS 1.5% or of commercially available ketorolac 0.5% were given at 0 time, and 1 h later to rabbits with concanavalin A-induced DED. Tears were obtained at 2 h and the levels of PGE2 were determined by ELISA. PGE2 in tears of naïve rabbits (not exposed to concanavalin A nor treated) was also measured. The PGE2 levels (mean±SEM) were: Naïve, 110.4±12.6 ng/ml; PS-treated, 115.4±15.8 ng/ml; Ketorolac-treated, 77.7±8.7 ng/ml. The difference in PS vs. ketorolac was significant, p<0.02; as was the difference in ketorolac vs naïve, p<0.03. Regarding this parameter, PS differs radically form ketorolac, which induces corneal melt.
Levels of PGE2 in the corneas of three groups of rabbits were determined by ELISA. Rabbits were treated with PS 1.6% or ketorolac 0.5% eye drops topically applied to their eyes or were not treated (naïve group). Results in pg/mg protein (mean±SEM). Naïve=787.3±96.3; PS=880.6±110.3; Ketrolorac=247.2±187.4 (p<0.01 vs PS).
Rabbits with DED induced by concanavalin A as above were treated for 6 days with vehicle, or PS 2.3% or ketorolac 0.5% or diclofenac 0.1%. Compared to the vehicle group, on day 6 the PGE2 levels in the cornea were 106% of the vehicle value in the PS group (not a statistically significant difference), 1.3% in the ketorolac group (p<0.0001 vs. vehicle, and 2.3% in the diclofenac group (p<0.0001 vs. vehicle).
It was determined that the levels of PGE2 in rabbit tears in three groups of rabbits, naïve and those with Con A-induced DED that were treated for 1 week either with PS or vehicle.
In an acute experiment, administered once topically to the eyes of four groups of rabbits with Con A-induced DED was one of the following: vehicle, PS, ketorolac or diclofenac; the latter two are NSAIDs used for the treatment of ocular inflammation and pain. It was determined that the levels of PGE2 in the cornea of these rabbits obtained 1 h later as well as in the corneas of naïve rabbits.

[2] = tested on: cornea of New Zealand white rabbits; experiment: Corneal touch threshold (CTT), Cochet-Bonnet aesthesiometer; type: in vivo, rabbit; settings: Lidocaine 1%
Method: The analgesic effect of PS was determined by measuring the corneal touch threshold (CTT) using the Luneau Cochet-Bonnet Aeshesiometer (Western Ophthalmics, Lynwood, Wash.), an adjustable nylon monofilament with a defined diameter, which is applied in different lengths to the center of the cornea. This device is generally described in Lima L, Lange R R, Turner-Giannico A, Montiani-Ferreira F. Evaluation of standardized endodontic paper point tear test in New Zealand white rabbits and comparison between corneal sensitivity followed tear tests. Vet Ophthalmol. 2015; 18 Suppl 1:119-24.
A stimulus produced by the filament that reaches the CTT induces a corneal reflex, consisting of prompt eyelid closure. The CTT is quantified as centimeter length of the filament necessary to cause the blink reflex.
The CTT is determined before (baseline) and at various time points after the application of the test compound (PS). PS was formulated either in β-cyclodextrin (42 or 8 mg/ml) or in a nanocarrier (19 mg/ml). The test drug was formulated in a nanocarrier by the emulsion and evaporation method (Vauthier C, Bouchemal K. Methods for the Preparation and Manufacture of Polymeric Nanoparticles. Pharmaceutical Research; 2009; 26:1025-1058). The formulated stable drug suspension consisted of polylactic acid and polyethylene glycol (PLLA(10k)-PEG(2k)); sodium cholate; and PS. The vehicle control was either β-cyclodextrin or the nanocarrier without PS. Commercially available lidocaine 1% was used as a positive control.
To each eye of adult New Zealand white rabbits was applied […] drops of PS or vehicle or lidocaine, with 5 minutes between each drop. The time of the last drop was taken as the 0 time.
The analgesic effect of PS was further examined on the surface of the eye by determining the corneal touch threshold (CTT) using the Luneau Cochet-Bonnet Aesthesiometer (Western Ophthalmics, Lynwood, Wash.) an adjustable nylon monofilament with a defined diameter, which is applied in different lengths to the center of the cornea.

Staphylococcus aureus = experiment: Disk diffusion antimicrobial susceptibility with PS-impregnated antibiotic disks; type: cell-based; settings: 24 h, mean ± SD
Method: Briefly, Staphylococcus aureus grown in culture was seeded evenly on Muller-Hinton II Agar plates (BD Diagnostic Systems) at the standard concentration of 2×10^8 colony-forming units per mL. Antibiotic antimicrobial susceptibility disks (Thermo Scientific Oxoid™) were impregnated with one of six concentrations of PS (0%, 1%, 2%, 3%, 6%, 9%); 10 μL of each was evenly dispensed on each disk. An additional control was disks with no PS and no vehicle. The growth of bacteria around each disk was monitored and the area of “no growth” around each disk was measured 24 h later.

[3] = tested on: chorioallantoic membrane (CAM); experiment: Chorioallantoic membrane (CAM) neovascularization assay; type: in vivo, chicken; settings: VEGF alone; day 4; Mean ± SEM
Method: Second, the effect of PS on new vessel formation (neovascularization) was evaluated using the chorioallantoic membrane (CAM) assay. In this assay, fertilized white chicken eggs (SPF Premium, Charles River Laboratory, North Franklin, Conn.) were incubated at 37° C. in 70% humidity for 3 days. The embryos were then incubated ex vivo in a sterile Petri dish for 7 days. Gelatin sponges adsorbed with or without VEGF plus PS or water (vehicle control) were implanted on the CAM surface and the neovasculature was counted on day 4 post implantation under a dissecting microscope.

MMPs = experiment: General MMP activity in rabbit cornea (FRET peptide); type: in vivo
Method: The general activity of MMPs was determined in the corneas of three groups of rabbits. This MMP activity assay employs a fluorescence resonance energy transfer (FRET) peptide as a generic MMP indicator. Rabbits were treated with PS 1.6% or ketorolac 0.5% eye drops topically applied to their eyes or were not treated (naïve group). Results in relative fluorescence units (RFU)/mg protein (mean±SEM). Naïve=1,328±123; PS=749±218; Ketoroloac=1,272±106 (p<0.03 vs PS).
In an acute experiment, naïve rabbits were treated with either PS or ketorolac (both administered topically) for 1 h and determined the activity of MMP in the cornea. This assay determines the activity of MMPs collectively in a given tissue.

[4] = Con A DED rabbits, ketorolac 0.5%
[5] = antibiotic disk with PS 0% (vehicle only)
[6] = rabbits, PS 1.6% or ketorolac 0.5% eye drops, mean±SEM

O=C(O)Cc1ccccc1Nc1c(Cl)cccc1Cl [diclofenac]
TBUT, osmolarity and STT [1]: failed to improve
PGE2 levels in the cornea (PGE2; Con A DED rabbits): suppressed nearly completely
PGE2 levels in the cornea, % of the vehicle value (PGE2; [4]): 2.3%

CCN(CC)CC(=O)Nc1c(C)cccc1C [Lidocaine, lidocaine, reference compound]
Corneal touch threshold (CTT) ([2]; 1 min): 1.5 ± 1.3 centimeter
Corneal touch threshold (CTT) ([2]; 5 min): 2.3 ± 1.5 centimeter
Corneal touch threshold (CTT) ([2]; 10 min): 3.1 ± 1.9 centimeter
Corneal touch threshold (CTT) ([2]; 20 min): 4.0 ± 1.3 centimeter
Corneal touch threshold (CTT) ([2]; 30 min): 5.8 ± 0.6 centimeter
Corneal touch threshold (CTT) ([2]; 45 min): 5.8 ± 0.6 centimeter
Corneal touch threshold (CTT) ([2]; 60 min): 6.0 ± 0.0 centimeter
Corneal touch threshold (CTT) ([2]; baseline): 6.0 ± 0.0 centimeter

C[C@H]1COc2c(N3CCN(C)CC3)c(F)cc3c(=O)c(C(=O)O)cn1c23 [Levofloxacin]
Inhibition Zone (Staphylococcus aureus; [5]): 32.3 ± 0.6 mm
Inhibition Zone (Staphylococcus aureus; antibiotic disk with PS 1%): 32.7 ± 0.6 mm
Inhibition Zone (Staphylococcus aureus; antibiotic disk with PS 2%): 32.0 ± 0.0 mm
Inhibition Zone (Staphylococcus aureus; antibiotic disk with PS 3%): 31.7 ± 0.6 mm
Inhibition Zone (Staphylococcus aureus; antibiotic disk with PS 6%): 32.3 ± 1.5 mm
Inhibition Zone (Staphylococcus aureus; antibiotic disk with PS 9%): 31.0 ± 1.0 mm

VEGF [reference compound]
# of new vessels [3]: 62.3 ± 1.8

O=C(c1ccccc1)c1ccc2n1CCC2C(=O)O (stereo not shown) [Ketorolac, ketorolac]
TBUT, osmolarity and STT [1]: failed to improve
PGE2 levels in the cornea (PGE2; Con A DED rabbits): suppressed nearly completely
PGE2 levels in the cornea, % of the vehicle value (PGE2; [4]): 1.3%
PGE2 levels in tears (PGE2; Con A DED rabbits, three eye drops at 0 and 1 h, tears at 2 h, PS 1.5%, ketorolac 0.5%, mean±SEM): 77.7 ± 8.7 ng/mL
PGE2 levels in the corneas (PGE2; [6]): 247.2±187.4 pg/mg protein
MMP activity in the cornea (MMPs; naïve rabbits, topical, 1 h): failed to affect
general activity of MMPs in the corneas (MMPs; [6]): 1,272±106 RFU/mg protein

O=C(O)c1cn(C2CC2)c2cc(N3CCNCC3)c(F)cc2c1=O [Ciprofloxacin]
Inhibition Zone (Staphylococcus aureus; [5]): 30.0 ± 0.0 mm
Inhibition Zone (Staphylococcus aureus; antibiotic disk with PS 1%): 30.3 ± 0.6 mm
Inhibition Zone (Staphylococcus aureus; antibiotic disk with PS 2%): 29.7 ± 0.6 mm
Inhibition Zone (Staphylococcus aureus; antibiotic disk with PS 3%): 29.3 ± 0.6 mm
Inhibition Zone (Staphylococcus aureus; antibiotic disk with PS 6%): 27.7 ± 0.4 mm
Inhibition Zone (Staphylococcus aureus; antibiotic disk with PS 9%): 29.7 ± 0.6 mm
